The values that follow come from article PMC8119374 (Biochimie, 2021).

This test addresses mitochondrial respiratory Complex I (Mus musculus, UniProt P03888+Q91WD5+Q9DC70). The test is classed as biochemical.

In general, IC50 refers to the concentration needed to halve the response being measured. Higher therefore signals weaker potency in that assay. The molecule `Cc1cc(OCc2nnc(SC3CCCC3)n2-c2cccnc2)ccc1-c1ccc(S(C)(=O)=O)cc1` [NMS-873] registered an IC50 of 471 nM.
